US7932277B2, “Peptide inhibitors of hepatitis C virus replication” (InterMune, Inc., priority 2007, dated 2011)

What was measured:
[1] = target: T1, NS3/NS4A-2 (full-length HCV NS3 protease complexed with NS4A-2) (Hepatitis C virus genotype 1a, UniProt P27958); test: NS3 inhibition assay (NS3-NS4 protease assay); type: biochemical; conditions: recombinant full-length NS3/NS4A-2, RETS1 substrate, kinetic fluorescence read; read-out: NS3-NS4 IC50
T1 construct: Recombinant E. coli or Baculovirus full-length NS3; host or cells: E. coli or baculovirus (insect cells)
T1 sequence (P27958 1027-1657, one chain of several): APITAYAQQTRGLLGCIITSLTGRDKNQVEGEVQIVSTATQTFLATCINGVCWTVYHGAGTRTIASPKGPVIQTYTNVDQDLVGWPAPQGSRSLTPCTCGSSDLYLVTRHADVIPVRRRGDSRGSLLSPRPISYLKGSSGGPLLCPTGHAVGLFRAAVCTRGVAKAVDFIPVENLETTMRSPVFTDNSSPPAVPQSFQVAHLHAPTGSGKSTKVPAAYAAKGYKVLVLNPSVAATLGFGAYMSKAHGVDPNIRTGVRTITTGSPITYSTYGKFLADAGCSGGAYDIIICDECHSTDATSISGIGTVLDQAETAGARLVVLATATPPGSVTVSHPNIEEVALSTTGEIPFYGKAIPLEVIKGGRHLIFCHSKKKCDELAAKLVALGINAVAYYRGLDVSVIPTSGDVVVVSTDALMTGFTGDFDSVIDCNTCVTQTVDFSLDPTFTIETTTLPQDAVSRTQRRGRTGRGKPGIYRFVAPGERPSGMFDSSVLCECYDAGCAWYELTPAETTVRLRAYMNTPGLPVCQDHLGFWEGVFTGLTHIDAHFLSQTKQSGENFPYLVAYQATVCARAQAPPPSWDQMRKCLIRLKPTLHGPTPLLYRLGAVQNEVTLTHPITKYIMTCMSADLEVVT
Experimental: Recombinant E. coli or Baculovirus full-length NS3 was diluted to 3.33 μM with assay buffer and transferred material to an eppendorf tube and place in water bath in 4° C. refrigerator. The appropriate amount of NS4A-2 to 8.3 mM in assay buffer was added to equal the volume of NS3 in step 2.1.1 (conversion factor −3.8 mg/272 μL assay buffer). The material was transferred to an eppendorf tube and place in water bath in 4° C. refrigerator.
After equilibration to 4° C., equal volumes of NS3 and NS4A-2 solutions were combined in an eppendorf tube, mix gently with a manual pipettor, and incubate mixture for 15 minutes in the 4° C. water bath. Final concentrations in the mixture are 1.67 μM NS3, 4.15 mM NS4A-2 (2485-fold molar excess NS4A-2).
After 15 minutes at 4° C., the NS3/NS4A-2 eppendorf tube was removed and place it in a room temperature water bath for 10 minutes. NS3/NS4A-2 was aliquoted at appropriate volumes and store at −80° C. (E. coli NS3 run at 2 nM in assay, aliquot at 25 μL. BV NS3 run at 3 nM in assay, aliquot at 30 μL).
Sample compounds were dissolved to 10 mM in DMSO then diluted to 2.5 mM (1:4) in DMSO. Typically, compounds were added to an assay plate at 2.5 mM concentration, yielding upon dilution a starting concentration of 50 microM in the assay inhibition curve. Compounds were serial diluted in assay buffer to provide test solutions at lower concentrations.
The E. coli. NS3/NS4A-2 was diluted to 4 nM NS3 (1:417.5 of 1.67 μM stock−18 μL1.67 μM stock+7497 μL assay buffer). The BV NS3/NS4A-2 was diluted to 6 nM NS3 (1:278.3 of 1.67 μM stock−24 μL1.67 μM stock+6655 μL assay buffer). Using the manual multichannel pipettor, careful not to introduce bubbles into the plate, add 50 μL assay buffer to wells A01-H01 of a black Costar 96-well polypropylene storage plate.
Using the manual multichannel pipettor, careful not to introduce bubbles into the plate, add 50 μL of diluted NS3/NS4A-2 from step 2.2.6 to wells A02-H12 of plate in step 2.2.7. Using the manual multichannel pipettor, careful not to introduce bubbles into the plate, transfer 25 μL of the wells in drug dilution plate in step 2.2.5 to corresponding wells in assay plate in step 2.2.8. Change tips on multichannel pipettor for each row of compounds transferred. Using the manual multichannel pipettor, careful not to introduce bubbles into the plate, mix the wells from the assay plate in step 2.2.9 by aspirating and dispensing 35 μL of the 75 μL in each well five times. Change tips on multichannel pipettor for each row of wells mixed. Cover plate with a polystyrene plate lid and pre-incubate the plate from step 2.2.10 containing NS3 protease and sample compounds 10 minutes at room temperature. While plate from step 2.2.11 is pre-incubating, dilute RETS1 substrate in a 15 mL polypropylene centrifuge tube. Dilute RETS1 substrate to 8 μM (1:80.75 of 646 μM stock−65 μL 646 μM stock+5184 μL assay buffer).
After the plate in step is done pre-incubating, and using the manual multichannel, add 25 μL of substrate to all wells on the plate. Quickly mix the plate as in step 2.2.10, mixing 65 μL of the 100 μL in the wells.
Read the plate in kinetic mode on the Molecular Devices SpectraMax Gemini XS plate reader. Reader settings: Read time: 30 minutes, Interval: 36 seconds, Reads: 51, Excitation λ: 335 nm, Emission λ: 495 nm, cutoff: 475 nm, Automix: off, Calibrate: once, PMT: high, Reads/well: 6, Vmax pts: 21 or 28/51 depending on length of linearity of reaction
IC50s are determined using a four parameter curve fit equation, and converted to Ki's using the following Km's: • Full-length E. coli NS3−2.03 μM • Full-length BV NS3−1.74 μM • where Ki=IC50/(1+[S]/Km)) • Quantitation by ELISA of the Selectable Marker Protein, Neomycin Phosphotransferase II (NPTII) in the HCV Sub-Genomic Replicon, GS4.3

[2] = test system: HCV sub-genomic replicon (1377/NS3-3') in HuH-7 hepatoma cells (GS4.3); test: Quantitation by ELISA of NPTII in the HCV sub-genomic replicon, GS4.3; type: cell-based, hepatitis C virus (HCV); conditions: Hepatitis C virus, Huh-7; GS4.3 cells, 72 h incubation, NPTII ELISA; read-out: Replicon EC50
Experimental: The HCV sub-genomic replicon (1377/NS3-3′, accession No. AJ242652), stably maintained in HuH-7 hepatoma cells, was created by Lohmann et al. Science 285: 110-113 (1999). The replicon-containing cell culture, designated GS4.3, was obtained from Dr. Christoph Seeger of the Institute for Cancer Research, Fox Chase Cancer Center, Philadelphia, Pa.
GS4.3 cells were maintained at 37° C., 5% CO2, in DMEM (Gibco 11965-092) supplemented with L-glutamine 200 mM (100×) (Gibco25030-081), non-essential amino acids (NEAA) (Biowhittaker 13-114E), heat-inactivated (HI) Fetal Bovine Serum (FBS) (Hyclone SH3007.03) and 750 μg/mL geneticin (G418)(Gibco 10131-035). Cells were sub-divided 1:3 or 4 every 2-3 days.
24 h prior to the assay, GS4.3 cells were collected, counted, and plated in 96-well plates (Costar 3585) at 7500 cells/well in 100 μL standard maintenance medium (above) and incubated in the conditions above. To initiate the assay, culture medium was removed, cells were washed once with PBS (Gibco 10010-023) and 90 μl Assay Medium (DMEM, L-glutamine, NEAA, 10% HI FBS, no G418) was added. Inhibitors were made as a 10× stock in Assay Medium, (3-fold dilutions from 10 μM to 56 pM final concentration, final DMSO concentration 1%), 10 μL were added to duplicate wells, plates were rocked to mix, and incubated as above for 72 h.
An NPTII Elisa kit was obtained from AGDIA, Inc. (Compound direct ELISA test system for Neomycin Phosphotransferase II, PSP 73000/4800). Manufacturer's instructions were followed, with some modifications. 10×PEB-1 lysis buffer was made up to include 500 μM PMSF (Sigma P7626, 50 mM stock in isopropanol). After 72 h incubation, cells were washed once with PBS and 150 μL PEB-1 with PMSF was added per well. Plates were agitated vigorously for 15 minutes, room temperature, then frozen at −70° C. Plates were thawed, lysates were mixed thoroughly, and 100 μl were applied to an NPTII Elisa plate. A standard curve was made. Lysate from DMSO-treated control cells was pooled, serially diluted with PEB-1 with PMSF, and applied to duplicate wells of the ELISA plate, in a range of initial lysate amount of 150 μL-2.5 μL. In addition, 100 μL buffer alone was applied in duplicate as a blank. Plates were sealed and gently agitated at room temperature for 2 h. Following capture incubation, the plates were washed 5×300 μL with PBS-T (0.5% Tween-20, PBS-T was supplied in the ELISA kit). For detection, a 1× dilution of enzyme conjugate diluent MRS-2 (5×) was made in PBS-T, into which 1:100 dilutions of enzyme conjugates A and B were added, as per instructions. Plates were resealed, and incubated with agitation, covered, room temperature, for 2 h. The washing was then repeated and 100 μL of room temperature TMB substrate was added. After approximately 30 minutes incubation (room temperature, agitation, covered), the reaction was stopped with 50 μL 3M sulfuric acid. Plates were read at 450 nm on a Molecular Devices Versamax plate reader.
Inhibitor effect was expressed as a percentage of DMSO-treated control signal, and inhibition curves were calculated using a 4-parameter equation: y=A+((B−A)/(1+((C/x)^D))), where C is half-maximal activity or EC50.

| SMILES | IC50 [1] [nM] | EC50 [2] [nM] |
| --- | --- | --- |
| C=C[C@@H]1C[C@]1(NC(=O)[C@@H]1C[C@@H](OC(=O)N2Cc3cccc(F)c3C2)CN1C(=O)[C@@H](Nc1ccc(Br)cc1)C(C)C)C(=O)NS(=O)(=O)C1CC1 [Compound 36, [(3R,5S)-5-((1R,2S)-1-(cyclopropylsulfonylcarbamoyl)-2-vinylcyclopropylcarbamoyl)-1-((S)-2-(4-bromophenylamino)-3-methylbutanoyl)pyrrolidin-3-yl]4-fluoroisoindoline-2-carboxylate] | < 100 | 100 to 1000 |
| C=C[C@@H]1C[C@]1(NC(=O)[C@@H]1C[C@@H](OC(=O)N2Cc3cccc(F)c3C2)CN1C(=O)[C@@H](Nc1ccc(F)cc1)C(C)(C)C)C(=O)NS(=O)(=O)C1CC1 [Compound 37, [(3R,5S)-5-((1R,2S)-1-(cyclopropylsulfonylcarbamoyl)-2-vinylcyclopropylcarbamoyl)-1-((S)-2-(4-fluorophenylamino)-3,3-methylbutanoyl)pyrrolidin-3-yl]4-fluoroisoindoline-2-carboxylate] | < 100 | < 100 |
| C=C[C@@H]1C[C@]1(NC(=O)[C@@H]1C[C@@H](OC(=O)N2Cc3cccc(F)c3C2)CN1C(=O)[C@@H](Nc1ccc(C(C)(C)C)cc1)C(C)C)C(=O)NS(=O)(=O)C1CC1 [Compound 38, [(3R,5S)-1-((S)-2-(4-tert-butylphenylamino)-3-methylbutanoyl)-5-((1R,2S)-1-(cyclopropylsulfonylcarbamoyl)-2-vinylcyclopropylcarbamoyl)pyrrolidin-3-yl]4-fluoroisoindoline-2-carboxylate] | < 100 | 100 to 1000 |
| C=C[C@@H]1C[C@]1(NC(=O)[C@@H]1C[C@@H](OC(=O)N2Cc3cccc(F)c3C2)CN1C(=O)[C@@H](Nc1ccc(F)nc1)C(C)C)C(=O)NS(=O)(=O)C1CC1 [Compound 39, [(3R,5S)-5-((1R,2S)-1-(cyclopropylsulfonylcarbamoyl)-2-vinylcyclopropylcarbamoyl)-1-((S)-2-(6-fluoropyridin-3-ylamino)-3-methylbutanoyl)pyrrolidin-3-yl]4-fluoroisoindoline-2-carboxylate] | < 100 | 100 to 1000 |
| C=C[C@@H]1C[C@]1(NC(=O)[C@@H]1C[C@@H](OC(=O)N2Cc3cccc(F)c3C2)CN1C(=O)[C@@H](Nc1cccc(C(C)(C)C)c1)C(C)C)C(=O)NS(=O)(=O)C1CC1 [Compound 40, [(3R,5S)-1-((S)-2-(3-tert-butylphenylamino)-3-methylbutanoyl)-5-((1R,2S)-1-(cyclopropylsulfonylcarbamoyl)-2-vinylcyclopropylcarbamoyl)pyrrolidin-3-yl]4-fluoroisoindoline-2-carboxylate] | < 100 | < 100 |
| C=C[C@@H]1C[C@]1(NC(=O)[C@@H]1C[C@@H](OC(=O)N2Cc3cccc(Cl)c3C2)CN1C(=O)[C@@H](Nc1cccc(C(C)(C)C)c1)C(C)C)C(=O)NS(=O)(=O)C1CC1 [Compound 41, [(3R,5S)-1-((S)-2-(3-tert-butylphenylamino)-3-methylbutanoyl)-5-((1R,2S)-1-(cyclopropylsulfonylcarbamoyl)-2-vinylcyclopropylcarbamoyl)pyrrolidin-3-yl]4-chloroisoindoline-2-carboxylate] | < 100 | < 100 |
| C=C[C@@H]1C[C@]1(NC(=O)[C@@H]1C[C@@H](OC(=O)N2Cc3cccc(F)c3C2)CN1C(=O)[C@@H](Nc1cccc(C(F)(F)F)c1)C(C)C)C(=O)NS(=O)(=O)C1CC1 [Compound 42, [(3R,5S)-5-((1R,2S)-1-(cyclopropylsulfonylcarbamoyl)-2-vinylcyclopropylcarbamoyl)-1-((S)-3-methyl-2-(3-(trifluoromethyl)phenylamino)butanoyl)pyrrolidin-3-yl]4-fluoroisoindoline-2-carboxylate] | < 100 | < 100 |
| C=C[C@@H]1C[C@]1(NC(=O)[C@@H]1C[C@@H](OC(=O)N2Cc3cccc(F)c3C2)CN1C(=O)[C@@H](Nc1cccc(C(F)(F)F)c1)C(C)(C)C)C(=O)NS(=O)(=O)C1CC1 [Compound 43, [(3R,5S)-5-((1R,2S)-1-(cyclopropylsulfonylcarbamoyl)-2-vinylcyclopropylcarbamoyl)-1-((S)-3,3-dimethyl-2-(3-(trifluoromethyl)phenylamino)butanoyl)pyrrolidin-3-yl]4-fluoroisoindoline-2-carboxylate] | < 100 | < 100 |
